Data published in ChEMBL document CHEMBL2074057, “Active secretion of drugs from the small intestinal epithelium in rats by P-glycoprotein functioning as an absorption barrier” (J Pharm Pharmacol, 1996).

Assays:
[1] = molecular target: T1, ATP-dependent translocase ABCB1 (Homo sapiens, UniProt P08183); assay: TP_TRANSPORTER: uptake in K562 and K562/ADR cell; type: functional, cell-based
[2] = molecular target: T1, ATP-dependent translocase ABCB1; assay: TP_TRANSPORTER: transepithelial transport (basal to apical) in Caco-2 cells; type: functional, cell-based

T1 sequence (P08183 whole entry): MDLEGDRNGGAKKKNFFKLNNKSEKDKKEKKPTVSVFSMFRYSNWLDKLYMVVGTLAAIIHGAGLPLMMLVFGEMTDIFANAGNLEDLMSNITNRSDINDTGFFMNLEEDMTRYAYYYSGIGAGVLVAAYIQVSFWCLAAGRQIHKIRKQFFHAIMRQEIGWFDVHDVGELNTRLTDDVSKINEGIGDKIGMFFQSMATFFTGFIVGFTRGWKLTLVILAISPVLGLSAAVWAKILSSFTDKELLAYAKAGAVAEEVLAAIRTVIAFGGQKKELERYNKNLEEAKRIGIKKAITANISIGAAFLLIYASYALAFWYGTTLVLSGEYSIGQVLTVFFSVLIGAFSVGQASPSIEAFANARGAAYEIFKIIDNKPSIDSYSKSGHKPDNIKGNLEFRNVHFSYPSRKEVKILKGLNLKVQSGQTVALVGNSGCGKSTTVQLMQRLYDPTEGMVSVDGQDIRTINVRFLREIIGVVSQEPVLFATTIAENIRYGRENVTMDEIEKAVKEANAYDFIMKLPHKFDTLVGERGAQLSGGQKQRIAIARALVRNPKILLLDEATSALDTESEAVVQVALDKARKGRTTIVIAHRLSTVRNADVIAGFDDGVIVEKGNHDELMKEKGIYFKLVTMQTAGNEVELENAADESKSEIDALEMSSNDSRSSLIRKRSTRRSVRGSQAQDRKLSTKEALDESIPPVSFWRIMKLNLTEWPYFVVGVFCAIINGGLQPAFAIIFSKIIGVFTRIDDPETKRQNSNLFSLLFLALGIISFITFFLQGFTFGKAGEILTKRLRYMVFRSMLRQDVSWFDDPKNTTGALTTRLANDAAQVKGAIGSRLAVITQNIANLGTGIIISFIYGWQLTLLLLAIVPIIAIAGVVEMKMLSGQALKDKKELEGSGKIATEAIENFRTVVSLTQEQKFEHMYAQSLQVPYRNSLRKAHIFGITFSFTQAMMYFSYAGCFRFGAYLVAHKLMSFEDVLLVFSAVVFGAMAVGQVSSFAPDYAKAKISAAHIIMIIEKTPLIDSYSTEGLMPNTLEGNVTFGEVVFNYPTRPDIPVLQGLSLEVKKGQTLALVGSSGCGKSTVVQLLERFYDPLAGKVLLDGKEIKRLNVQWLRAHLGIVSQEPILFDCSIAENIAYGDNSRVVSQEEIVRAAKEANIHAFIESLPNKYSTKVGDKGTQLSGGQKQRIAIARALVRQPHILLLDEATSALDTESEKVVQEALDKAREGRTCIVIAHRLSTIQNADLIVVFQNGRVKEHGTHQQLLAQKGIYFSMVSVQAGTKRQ

Row | Activity [1] | Activity [2] | SMILES
1 | substrate [+] | – | CCN(CC)C(=O)Nc1ccc(OCC(O)CNC(C)(C)C)c(C(C)=O)c1 (stereo not given) [CELIPROLOL]
2 | substrate [+] | – | CC(C)(C)NC[C@H](O)COc1nsnc1N1CCOCC1 [TIMOLOL]
3 | substrate [+] | substrate [+] | CCCC(=O)Nc1ccc(OCC(O)CNC(C)C)c(C(C)=O)c1 (stereo not given) [ACEBUTOLOL]
4 | substrate [+] | – | CC(C)(C)NCC(O)COc1cccc2c1CC(O)C(O)C2 (stereo not given) [NADOLOL]
